SMILES strings stand for the structures.

Series [1] deals with Rho-associated protein kinase 1 (Homo sapiens, UniProt Q13464). Description: Inhibition of human recombinant ROCK1 expressed in Sf9 cells […].
Series [2] has as its target Ribosomal protein S6 kinase beta-1 (Homo sapiens, UniProt P23443). Description: Inhibition of p70S6K.
The target of series [3] is Ribosomal protein S6 kinase alpha-1 (Homo sapiens, UniProt Q15418). In words: Inhibition of RSK1.
The nature of series [4]: Oral bioavailability in Sprague-Dawley rat at 1.6 mg/kg, po. Format: ADME, organism-based. The note with it: in vivo.
In a further series the test system is Thoracic aorta. Description: Dilatory activity against phenylephrine-induced contraction of Sprague-Dawley rat thoracic aorta. Format: functional, tissue-based.
A short description of series [5]: Clearance in Sprague-Dawley rat at 1.6 mg/kg. Format: ADME, organism-based. Further details: dose 1.6 mg/kg. The note with it: in vivo.
The nature of series [6]: Half life in Sprague-Dawley rat at 1.6 mg/kg. As to conditions: in vivo. It counts as ADME, organism-based. The arrangement: dose 1.6 mg/kg.
Series [7] in a line: Cmax in Sprague-Dawley rat at 1.6 mg/kg, iv. As to conditions: in vivo. It counts as ADME, organism-based. The arrangement: dose 1.6 mg/kg, route intravenous.
Series [8] can be described thus: Volume of distribution in Sprague-Dawley rat at 1.6 mg/kg. It counts as ADME, organism-based. The note with it: in vivo, read-out: Vdss. The arrangement: dose 1.6 mg/kg.
Series [9] in a line: Volume of distribution in Sprague-Dawley rat at 0.9 mg/kg. It counts as ADME, organism-based. As to conditions: in vivo, read-out: Vdss. The arrangement: dose 0.9 mg/kg.
A short description of series [10]: Half life in Sprague-Dawley rat at 0.9 mg/kg. Format: ADME, organism-based. The arrangement: dose 0.9 mg/kg. The note with it: in vivo.
A short description of series [11]: Clearance in Sprague-Dawley rat at 0.9 mg/kg. It counts as ADME, organism-based. The arrangement: dose 0.9 mg/kg. The note with it: in vivo.
Series [12] can be described thus: Oral bioavailability in Sprague-Dawley rat at 0.9 mg/kg, po. It counts as ADME, organism-based. As to conditions: in vivo.
A short description of series [13]: Cmax in Sprague-Dawley rat at 0.9 mg/kg, iv. It counts as ADME, organism-based. The arrangement: dose 0.9 mg/kg, route intravenous. As to conditions: in vivo.
Series [14] can be described thus: Plasma concentration in spontaneously hypertensive rat at 3 mg/kg after 0.5 hrs. Format: ADME, organism-based. Further details: dose 3 mg/kg.
The nature of series [15]: Plasma concentration in spontaneously hypertensive rat at 3 mg/kg after 8 hrs. Format: ADME, organism-based. Further details: dose 3 mg/kg.
The nature of series [16]: Volume of distribution in Sprague-Dawley rat at 1.8 mg/kg. It counts as ADME, organism-based. The arrangement: dose 1.8 mg/kg. As to conditions: in vivo, read-out: Vdss.
A short description of series [17]: Clearance in Sprague-Dawley rat at 1.8 mg/kg. It counts as ADME, organism-based. Further details: dose 1.8 mg/kg. As to conditions: in vivo.
A short description of series [18]: Oral bioavailability in Sprague-Dawley rat at 1.8 mg/kg, po. It counts as ADME, organism-based. As to conditions: in vivo.
Series [19] can be described thus: Plasma concentration in spontaneously hypertensive rat at 3 mg/kg after 24 hrs. Format: ADME, organism-based. The arrangement: dose 3 mg/kg.
Series [20] in a line: Plasma concentration in spontaneously hypertensive rat at 3 mg/kg after 4 hrs. Further details: dose 3 mg/kg. It counts as ADME, organism-based.
The nature of series [21]: Cmax in Sprague-Dawley rat at 1.8 mg/kg, iv. The note with it: in vivo. The arrangement: dose 1.8 mg/kg, route intravenous. Format: ADME, organism-based.
Series [22] can be described thus: Plasma concentration in spontaneously hypertensive rat at 3 mg/kg after 1 hr. Further details: dose 3 mg/kg. Format: ADME, organism-based.
A short description of series [23]: Plasma concentration in spontaneously hypertensive rat at 3 mg/kg after 2 hrs. Format: ADME, organism-based. The arrangement: dose 3 mg/kg.
A short description of series [24]: Half life in Sprague-Dawley rat at 1.8 mg/kg. Format: ADME, organism-based. Further details: dose 1.8 mg/kg. As to conditions: in vivo.
The next series relates to Rattus norvegicus. In words: Decrease in mean arterial pressure in spontaneously hypertensive rat at 3 mg/kg, po. Format: functional, organism-based. The note with it: Artery. The arrangement: dose 3 mg/kg.
A short description of series [25]: Cmax in Sprague-Dawley rat at 1.3 mg/kg, iv. Further details: dose 1.3 mg/kg, route intravenous. Format: ADME, organism-based. As to conditions: in vivo.
A short description of series [26]: Clearance in Sprague-Dawley rat. Format: ADME, organism-based. The note with it: in vivo.
The nature of series [27]: Half life in Sprague-Dawley rat at 1.7 mg/kg. It counts as ADME, organism-based. Further details: dose 1.7 mg/kg. As to conditions: in vivo.
The nature of series [28]: Volume of distribution in Sprague-Dawley rat at 1.7 mg/kg. It counts as ADME, organism-based. The arrangement: dose 1.7 mg/kg. As to conditions: in vivo, read-out: Vdss.
Series [29] is described as follows: Clearance in Sprague-Dawley rat at 1.7 mg/kg. It counts as ADME, organism-based. The arrangement: dose 1.7 mg/kg. The note with it: in vivo.
Series [30] is described as follows: Cmax in Sprague-Dawley rat at 1.7 mg/kg, iv. Format: ADME, organism-based. The arrangement: dose 1.7 mg/kg, route intravenous. As to conditions: in vivo.
Series [31] is described as follows: Oral bioavailability in Sprague-Dawley rat at 1.7 mg/kg, po. Format: ADME, organism-based. The note with it: in vivo.
Series [32] is described as follows: Half life in Sprague-Dawley rat at 1.3 mg/kg. Format: ADME, organism-based. The arrangement: dose 1.3 mg/kg. As to conditions: in vivo.
A short description of series [33]: Clearance in Sprague-Dawley rat at 1.3 mg/kg. It counts as ADME, organism-based. Further details: dose 1.3 mg/kg. As to conditions: in vivo.
Series [34] in a line: Oral bioavailability in Sprague-Dawley rat at 1.3 mg/kg, po. The note with it: in vivo. It counts as ADME, organism-based.
The nature of series [35]: Volume of distribution in Sprague-Dawley rat at 1.3 mg/kg. Format: ADME, organism-based. The arrangement: dose 1.3 mg/kg. The note with it: in vivo, read-out: Vdss.

Sequence of Ribosomal protein S6 kinase beta-1 (P23443 whole entry): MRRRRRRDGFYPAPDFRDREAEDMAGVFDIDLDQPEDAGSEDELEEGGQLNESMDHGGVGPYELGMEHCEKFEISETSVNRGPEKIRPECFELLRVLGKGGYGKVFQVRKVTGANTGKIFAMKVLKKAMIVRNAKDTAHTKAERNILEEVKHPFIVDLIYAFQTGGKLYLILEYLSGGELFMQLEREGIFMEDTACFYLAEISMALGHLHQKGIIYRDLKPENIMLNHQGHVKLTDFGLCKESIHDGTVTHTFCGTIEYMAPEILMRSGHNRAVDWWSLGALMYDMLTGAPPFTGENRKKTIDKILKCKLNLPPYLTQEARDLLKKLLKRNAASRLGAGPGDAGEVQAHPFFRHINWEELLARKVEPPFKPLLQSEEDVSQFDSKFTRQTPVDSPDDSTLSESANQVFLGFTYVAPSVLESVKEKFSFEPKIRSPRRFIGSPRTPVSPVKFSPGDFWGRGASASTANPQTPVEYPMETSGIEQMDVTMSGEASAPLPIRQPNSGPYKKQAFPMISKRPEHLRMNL
Sequence of Ribosomal protein S6 kinase alpha-1 (Q15418 whole entry): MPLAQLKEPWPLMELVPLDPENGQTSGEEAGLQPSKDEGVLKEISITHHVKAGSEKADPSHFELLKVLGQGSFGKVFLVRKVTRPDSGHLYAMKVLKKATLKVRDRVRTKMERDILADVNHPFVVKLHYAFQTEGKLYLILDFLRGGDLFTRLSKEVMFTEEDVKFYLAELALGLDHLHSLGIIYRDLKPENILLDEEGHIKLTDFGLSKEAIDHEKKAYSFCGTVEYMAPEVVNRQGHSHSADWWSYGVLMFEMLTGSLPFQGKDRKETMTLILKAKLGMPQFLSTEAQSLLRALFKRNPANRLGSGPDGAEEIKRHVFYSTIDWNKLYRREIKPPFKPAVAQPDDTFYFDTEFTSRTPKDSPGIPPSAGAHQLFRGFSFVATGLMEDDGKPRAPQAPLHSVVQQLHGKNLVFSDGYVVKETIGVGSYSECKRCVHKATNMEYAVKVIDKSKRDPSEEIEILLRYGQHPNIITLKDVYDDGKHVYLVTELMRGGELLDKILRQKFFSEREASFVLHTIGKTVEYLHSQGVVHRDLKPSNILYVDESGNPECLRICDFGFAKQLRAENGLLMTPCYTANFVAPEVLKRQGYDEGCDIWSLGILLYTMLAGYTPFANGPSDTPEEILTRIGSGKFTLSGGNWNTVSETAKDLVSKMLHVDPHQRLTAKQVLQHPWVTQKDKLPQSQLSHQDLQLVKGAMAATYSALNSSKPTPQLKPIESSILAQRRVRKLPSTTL
Sequence of Rho-associated protein kinase 1 (Q13464 whole entry): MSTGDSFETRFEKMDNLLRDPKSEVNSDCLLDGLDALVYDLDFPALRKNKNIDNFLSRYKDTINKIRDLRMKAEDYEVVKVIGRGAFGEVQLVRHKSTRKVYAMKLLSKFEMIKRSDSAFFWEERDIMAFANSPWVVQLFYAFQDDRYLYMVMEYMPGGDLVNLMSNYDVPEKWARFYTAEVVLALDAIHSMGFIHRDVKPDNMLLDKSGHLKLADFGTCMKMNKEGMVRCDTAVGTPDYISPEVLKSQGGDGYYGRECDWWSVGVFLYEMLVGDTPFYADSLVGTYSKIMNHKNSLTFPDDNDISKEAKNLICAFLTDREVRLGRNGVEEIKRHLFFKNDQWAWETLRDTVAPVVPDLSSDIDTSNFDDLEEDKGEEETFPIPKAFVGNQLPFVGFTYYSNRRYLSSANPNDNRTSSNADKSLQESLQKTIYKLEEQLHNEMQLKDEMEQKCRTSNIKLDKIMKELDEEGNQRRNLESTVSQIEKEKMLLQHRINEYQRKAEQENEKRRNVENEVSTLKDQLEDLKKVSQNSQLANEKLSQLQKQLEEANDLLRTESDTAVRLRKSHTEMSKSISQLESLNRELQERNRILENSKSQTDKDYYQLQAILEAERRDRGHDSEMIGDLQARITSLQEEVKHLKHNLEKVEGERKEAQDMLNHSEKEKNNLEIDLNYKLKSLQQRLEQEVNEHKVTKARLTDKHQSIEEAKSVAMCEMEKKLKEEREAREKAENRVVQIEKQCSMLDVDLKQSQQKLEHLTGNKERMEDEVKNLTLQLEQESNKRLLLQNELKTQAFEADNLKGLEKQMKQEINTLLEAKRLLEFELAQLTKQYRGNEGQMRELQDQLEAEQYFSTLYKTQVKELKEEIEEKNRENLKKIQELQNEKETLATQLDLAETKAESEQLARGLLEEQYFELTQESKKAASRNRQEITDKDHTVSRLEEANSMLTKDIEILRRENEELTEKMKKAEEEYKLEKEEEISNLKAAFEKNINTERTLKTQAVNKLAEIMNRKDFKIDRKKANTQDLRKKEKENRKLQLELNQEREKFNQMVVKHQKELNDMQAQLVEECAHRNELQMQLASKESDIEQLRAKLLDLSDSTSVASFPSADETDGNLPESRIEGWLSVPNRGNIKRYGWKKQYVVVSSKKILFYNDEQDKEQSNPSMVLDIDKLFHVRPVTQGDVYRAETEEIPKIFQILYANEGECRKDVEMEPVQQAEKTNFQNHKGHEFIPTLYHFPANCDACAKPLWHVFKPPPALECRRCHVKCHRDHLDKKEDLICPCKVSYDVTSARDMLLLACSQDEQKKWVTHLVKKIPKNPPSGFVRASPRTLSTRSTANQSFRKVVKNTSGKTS

`CC1=C(C(=O)Nc2ccc3[nH]ncc3c2F)C(c2ccc(C(F)(F)F)cc2)CC(=O)N1` (stereo unspecified): the IC50 was 2500 nM in series [1], more than 10000 nM in [2] and more than 10000 nM in series [3].
For `CC1=C(C(=O)Nc2ccc3[nH]ncc3c2)C(c2ccc(F)cc2)CC(=O)N1` (stereo unspecified), the IC50 is 51 nM in [1], 200 nM with Thoracic aorta, 1100 nM in [2] and 1410 nM in series [3]. The molecule further displayed a bioavailability in [4] of 14%. The molecule also yielded a clearance in series [5] of 47 mL/min/kg. For the same molecule, the half-life in series [6] is 1 h. This molecule also came in with a maximum concentration (Cmax) in [7] of 668 ng/mL. Also, in series [8], the Vd was found to be 2.1 L/kg.
On to `CC1=C(C(=O)Nc2ccc3[nH]ncc3c2)C(c2ccc(C(F)(F)F)cc2)CC(=O)N1` (stereo unspecified), for which the Vd in series [9] is 2.3 L/kg. Moreover, the values for the IC50 (in series [1]; in the series with Thoracic aorta; in [3]) were 5 nM, 39 nM and 740 nM, respectively. In series [10], this molecule gave a half-life of 0.7 h. In [11], the clearance came to 51 mL/min/kg. Also, the bioavailability in series [12] came out at 22%. In addition, the peak level in series [13] (Cmax) was 315 ng/mL.
Turning to `CC1=C(C(=O)Nc2cc3cn[nH]c3cc2F)C(c2ccc(C(F)(F)F)cc2)CC(=O)N1` (stereo unspecified), the concentration at 0.5 h in [14] amounted to 193 ng/mL. For the same molecule, the concentration at 8 h in series [15] turned out to be 74 ng/mL. Also, the Vd in series [16] turned out to be 1.4 L/kg. The molecule also came in with a clearance in series [17] of 25 mL/min/kg. The bioavailability in series [18] worked out at 61%. Moreover, the concentration at 24 h in [19] came to 2 ng/mL. For the same molecule, in series [20], the concentration at 4 h stood at 110 ng/mL. For the same molecule, the concentration for half-maximal inhibition (IC50) in [1] is 14 nM; in the series on Thoracic aorta, 190 nM; in series [2] it was 1940 nM; in series [3], 780 nM. The peak concentration (Cmax) in series [21] is 1560 ng/mL. In series [22], this molecule came in with a concentration at 1 h of 192 ng/mL. In [23], this molecule yielded a concentration at 2 h of 190 ng/mL. This molecule also gave a half-life in series [24] of 1 h. The Activity result in the series on Rattus norvegicus is “Dose-dependent effect”.
`CC1=C(C(=O)Nc2ccc3[nH]ncc3c2)C(c2ccc(F)cc2)NC(=O)N1` (stereo unspecified) [GSK-180736A]: the highest level in [25] (Cmax) was 567 ng/mL. For the same molecule, the IC50 in series [1] was determined as 14 nM; in the series on Thoracic aorta, 760 nM; in [2], 2850 nM; in [3], 3100 nM. The same molecule had a clearance in series [26] of 50 mL/min/kg.
In [27], `CC1=C(C(=O)Nc2ccc3[nH]ncc3c2)C(c2ccc3ccccc3c2)CC(=O)N1` (stereo unspecified) [GSK-270822A] showed a half-life of 0.9 h. In series [28], the Vd was 1.8 L/kg. Moreover, the IC50 in series [1] came out at 9 nM; in the series on Thoracic aorta, 76 nM; in series [2], 1550 nM; in series [3], 1100 nM. The molecule further registered a clearance in [29] of 45 mL/min/kg. In addition, the Cmax in series [30] was 700 ng/mL. The molecule also displayed a bioavailability in series [31] of 13%.
For the molecule `CC1=C(C(=O)Nc2ccc3[nH]ncc3c2)C(c2ccc(Cl)c(Cl)c2)CC(=O)N1` (stereo unspecified) [GSK-299115A], the Vd in series [9] is 2.4 L/kg. In addition, the half-maximal inhibitory concentration (IC50) in series [1] came to 8 nM; in [2], 560 nM; in series [3], 620 nM. This molecule also had a half-life in [10] of 0.8 h. In series [11], this molecule had a clearance of 57 mL/min/kg. The bioavailability in [12] is 1%. In [13], the Cmax turned out to be 334 ng/mL.
`CC1=C(C(=O)Nc2ccc3[nH]nc(C)c3c2)C(c2ccc(C(F)(F)F)cc2)CC(=O)N1` (stereo unspecified) [GSK-466314A] came in with a maximum concentration (Cmax) in series [25] of 672 ng/mL. Moreover, in series [32], the half-life was 2 h. In addition, the half-inhibitory concentration (IC50) in series [1] came out at 9 nM; in the series on Thoracic aorta, 130 nM; in [2], 4790 nM; in [3], 1950 nM. In addition, the clearance in [33] amounted to 24 mL/min/kg. Moreover, the bioavailability in series [34] worked out at 18%. In addition, the Vd in series [35] stood at 2.8 L/kg.
Take `CC1=C(C(=O)Nc2cc(Cl)c3[nH]ncc3c2)C(c2ccc(C(F)(F)F)cc2)CC(=O)N1` (stereo unspecified) [GSK-466317A]: the Vd in series [9] is 3.9 L/kg. Further, the IC50 in series [1] stood at 8 nM; in series [2] it was 590 nM; in [3] it was 90 nM. This molecule had a half-life in series [10] of 1.2 h. Also, the clearance in series [11] is 81 mL/min/kg. The bioavailability in series [12] is 29%. Further, the Cmax in series [13] stood at 424 ng/mL.

(Values after ChEMBL document CHEMBL1139217, “Development of dihydropyridone indazole amides as selective Rho-kinase inhibitors” (J Med Chem, 2007).)
